Assays:
Format in all cases: cell-based
[1] = system: primary human neurons; assay: MTT metabolism of neurons in astrocyte-neuron trans-well; conditions: neurons pretreated with oligonucleotide; 18 h of stimulation
Method: (§1) Primary human astrocytes were grown to confluency on inserts. After 24 h of stimulation by the combination of Aβ (1 μM) and IL-Iβ (10 ng/ml), inserts were washed thrice with HBSS and then placed onto the wells containing primary human neurons. Therefore, in this trans-well model, although neurons and astrocytes face each other, they are separable and the effect of soluble factors released from activated astrocytes on neurons can be studied allowing analysis of neuronal and glial populations separately.
Mitochondrial activity was measured with the 3-(4,5-dimethylthiazol-2-yl)-2,5-diphenyltetrazolium bromide (MTT) assay (Sigma). The cells were grown on 24-well culture plates with 500 μl of medium and treated with various reagents according to the experimental design. At the end of the treatment period, 300 μl of culture medium were removed from each well, and 20 μl of MTT solution (5 mg/ml) were added and incubated for 1 h.
(§2) Primary human neurons were incubated with antisense (ASO) and scrambled oligonucleotides (ScO) against N-SMase (A) and A-SMase (FIG. 2B). After 48 h, neurons were analyzed for protein expression of N-SMase and A-SMase. In FIG. 2C, primary human astrocytes seeded in inserts were stimulated by the combination of Aβ and IL-1β as described above. […] After 6 h of treatment with activated astrocytes, apoptotic events in neurons were detected by TUNEL. In FIG. 2D, TUNEL-positive cells were counted manually in four different images of each of three coverslips by three individuals blinded to the experiment. […] Values obtained from the control group served as 100%, and data obtained in other groups were calculated as percent of control accordingly. […]
(§3) In FIGS. 3A-3E, primary human astrocytes seeded in inserts were stimulated by the combination of Aβ and IL-Iβ as described above. […] In FIG. 3A, after 1 h, activity of N-SMase was measured in total cell extracts of neurons as described above. […] Values obtained from the control group served as 100%, and data obtained in other groups were calculated as percent of control accordingly.

[2] = system: primary human neurons; assay: LDH release from neurons in astrocyte-neuron trans-well; conditions: neurons pretreated with oligonucleotide; 18 h of stimulation
Method: as §1
The activity of lactate dehydrogenase (LDH) was measured using the direct spectrophotometric assay using an assay kit from Sigma.
as §2, with “experiment. In FIG. 2E, after 18 h of stimulation, cell viability was examined by the metabolism of MTT and the release of LDH.” for “experiment.”
as §3, with “accordingly. […] Primary human neurons were treated with 25 μM DETA-NONOate (a NO donor) and at different time points of treatment, activities of N-SMase (FIG. 3D) and A-SMase (FIG. 3E) were monitored. ^ap<0.001 vs control (0 h).” for “accordingly.”

[3] = system: iNOS; assay: iNOS mRNA expression (RT-PCR, real-time PCR) in activated primary human astrocytes; conditions: oligonucleotide 40 h, then 6 h of stimulation
Method: Total RNA was isolated from human primary astrocytes using RNA-Easy Qiagen kit following manufactures protocol. To remove any contaminating genomic DNA, total RNA was digested with DNase. Semi-quantitative RT-PCR was carried out as described earlier using oligo (dT) 12-18 as primer and MMLV reverse transcriptase (Clontech) in a 20-μl reaction mixture. The resulting cDNA was appropriately diluted, and diluted cDNA was amplified using Titanium Taq polymerase and the following primers for human proinflammatory genes: […]
It was performed using the ABI-Prism7700 sequence detection system (Applied Biosystems, Foster City, Calif.) using TaqMan Universal Master Mix and optimized concentrations of FAM-labeled probe, forward and reverse primers (Applied Biosystems) as described earlier. […] Data were processed by the ABI Sequence Detection System 1.6 software and analyzed by ANOVA.
Cells pretreated with ASO and ScO against N-SMase and A-SMase for 40 h were stimulated with (Aβ+IL-1β) under serum-free condition. After 24 h of stimulation, the concentration of nitrite was measured in supernatants (FIG. 4A) by Griess reagent. […] After 6 h, the expression of iNOS mRNA was analyzed by both semi-quantitative RT-PCR (C) and quantitative real-time PCR (FIG. 4D). The expression of TNF-a, IL-6 and IL-Iβ mRNAs were analyzed by semi-quantitative RT-PCR (FIG. 4E). […]

5′- CAGCGAGCCCGTCCACCAGCC -3′ (DNA, all phosphorothioate, methylation of C not given here) [ASO against N-SMase, ID; NO.: 12]
activated astroglia-mediated loss of MTT metabolism [1]: effectively prevented
LDH release from neurons [2]: significant reduction
(Aβ+IL-1β)-induced expression of iNOS mRNA [3]: strongly inhibited

From patent US9006205B2, “Antisense oligonucleotides against neutral sphingomyelinase and neutral sphingomyelinase inhibitor GW4869 for degenerative neurological disorders” (Rush University Medical Center, priority 2011, dated 2015)
